According to publication PMC5392334, “Discovery and characterization of a novel irreversible EGFR mutants selective and potent kinase inhibitor CHMFL-EGFR-26 with a distinct binding mode” (Oncotarget, 2017):

What was measured:
ABL1-phosphorylated = target: T1, ABL1-phosphorylated (Homo sapiens, UniProt P00519); assay: KinomeScan; format: binding; settings: read-out: % control
T1 construct: purchased DiscoveRx KINOMEscan

CAMK1 = target: T2, CAMK1 (Homo sapiens, UniProt Q14012); assay: KinomeScan; format: binding; settings: read-out: % control
T2 construct: purchased DiscoveRx KINOMEscan

CAMK1G = target: T3, CAMK1G (Homo sapiens, UniProt Q96NX5); assay: KinomeScan; format: binding; settings: read-out: % control
T3 construct: purchased DiscoveRx KINOMEscan
T3 sequence (Q96NX5 whole entry): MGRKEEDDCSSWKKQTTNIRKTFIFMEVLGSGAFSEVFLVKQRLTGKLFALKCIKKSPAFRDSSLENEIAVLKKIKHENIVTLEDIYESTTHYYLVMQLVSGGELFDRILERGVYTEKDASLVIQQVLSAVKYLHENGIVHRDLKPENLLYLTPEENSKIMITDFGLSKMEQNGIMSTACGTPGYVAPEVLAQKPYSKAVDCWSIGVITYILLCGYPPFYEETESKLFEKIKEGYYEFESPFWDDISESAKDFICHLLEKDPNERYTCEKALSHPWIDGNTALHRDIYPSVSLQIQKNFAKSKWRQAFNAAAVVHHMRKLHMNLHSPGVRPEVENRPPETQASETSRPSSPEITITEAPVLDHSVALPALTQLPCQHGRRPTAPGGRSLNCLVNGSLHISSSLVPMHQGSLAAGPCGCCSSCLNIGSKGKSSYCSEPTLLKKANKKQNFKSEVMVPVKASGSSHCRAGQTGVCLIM

CDC2L5 = target: T4, CDC2L5 (Homo sapiens, UniProt Q14004); assay: KinomeScan; format: binding; settings: read-out: % control
T4 construct: purchased DiscoveRx KINOMEscan
T4 sequence (Q14004 whole entry): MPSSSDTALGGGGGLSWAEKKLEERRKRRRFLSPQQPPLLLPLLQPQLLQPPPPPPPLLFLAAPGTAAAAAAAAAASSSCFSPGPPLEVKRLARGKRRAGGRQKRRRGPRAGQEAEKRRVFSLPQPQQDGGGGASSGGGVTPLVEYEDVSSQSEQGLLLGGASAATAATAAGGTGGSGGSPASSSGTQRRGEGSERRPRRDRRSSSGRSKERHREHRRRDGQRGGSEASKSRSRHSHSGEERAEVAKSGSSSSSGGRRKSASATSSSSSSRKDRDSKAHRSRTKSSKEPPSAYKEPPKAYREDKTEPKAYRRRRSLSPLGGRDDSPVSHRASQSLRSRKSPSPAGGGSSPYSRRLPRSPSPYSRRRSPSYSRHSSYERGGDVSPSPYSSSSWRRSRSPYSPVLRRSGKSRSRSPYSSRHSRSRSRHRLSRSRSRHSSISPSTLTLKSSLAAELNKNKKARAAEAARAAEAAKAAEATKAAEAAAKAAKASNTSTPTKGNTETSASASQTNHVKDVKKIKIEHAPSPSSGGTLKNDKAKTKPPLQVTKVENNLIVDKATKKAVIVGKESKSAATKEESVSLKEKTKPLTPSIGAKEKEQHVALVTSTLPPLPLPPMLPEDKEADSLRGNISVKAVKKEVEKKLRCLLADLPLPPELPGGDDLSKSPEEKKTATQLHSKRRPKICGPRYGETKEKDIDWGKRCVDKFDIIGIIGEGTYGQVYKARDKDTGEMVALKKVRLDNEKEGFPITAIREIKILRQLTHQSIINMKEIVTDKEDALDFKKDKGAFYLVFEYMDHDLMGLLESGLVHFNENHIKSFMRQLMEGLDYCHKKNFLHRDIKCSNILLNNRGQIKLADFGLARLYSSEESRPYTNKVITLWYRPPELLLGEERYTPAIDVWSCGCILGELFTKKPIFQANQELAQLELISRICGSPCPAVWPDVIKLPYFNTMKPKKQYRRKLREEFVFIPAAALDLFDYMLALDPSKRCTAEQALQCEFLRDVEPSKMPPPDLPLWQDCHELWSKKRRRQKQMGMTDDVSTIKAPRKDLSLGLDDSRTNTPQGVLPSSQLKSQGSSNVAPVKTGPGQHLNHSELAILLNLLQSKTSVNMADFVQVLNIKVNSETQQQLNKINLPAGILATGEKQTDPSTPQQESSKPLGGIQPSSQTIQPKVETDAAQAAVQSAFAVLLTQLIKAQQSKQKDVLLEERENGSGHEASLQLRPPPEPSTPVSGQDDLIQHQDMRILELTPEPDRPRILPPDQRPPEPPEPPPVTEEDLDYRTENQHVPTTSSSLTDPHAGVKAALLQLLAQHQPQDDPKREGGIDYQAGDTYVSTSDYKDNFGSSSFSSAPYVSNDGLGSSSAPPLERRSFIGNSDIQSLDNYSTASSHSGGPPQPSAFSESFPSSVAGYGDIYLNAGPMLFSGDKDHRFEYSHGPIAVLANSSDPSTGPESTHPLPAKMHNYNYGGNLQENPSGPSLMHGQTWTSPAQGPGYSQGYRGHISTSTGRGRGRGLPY

CDK7 = target: T5, CDK7 (Homo sapiens, UniProt P50613); assay: KinomeScan; format: binding; settings: read-out: % control
T5 construct: purchased DiscoveRx KINOMEscan

CHEK1 = target: T6, CHEK1 (Homo sapiens, UniProt O14757); assay: KinomeScan; format: binding; settings: read-out: % control
T6 construct: purchased DiscoveRx KINOMEscan

DRAK1 = target: T7, DRAK1 (Homo sapiens, UniProt Q9UEE5); assay: KinomeScan; format: binding; settings: read-out: % control
T7 construct: purchased DiscoveRx KINOMEscan

EGFR = target: T8, EGFR (Homo sapiens, UniProt P00533); assay: KinomeScan; format: binding; settings: read-out: % control
T8 construct: purchased DiscoveRx KINOMEscan

EPHA7 = target: T9, EPHA7 (Homo sapiens, UniProt Q15375); assay: KinomeScan; format: binding; settings: read-out: % control
T9 construct: purchased DiscoveRx KINOMEscan

EPHB1 = target: T10, EPHB1 (Homo sapiens, UniProt P54762); assay: KinomeScan; format: binding; settings: read-out: % control
T10 construct: purchased DiscoveRx KINOMEscan

FLT3(ITD,F691L) = assay: KinomeScan; format: binding; settings: 1μM
FLT3(R834Q) = target: T11, FLT3(R834Q) (Homo sapiens, UniProt P36888, R834Q); assay: KinomeScan; format: binding; settings: read-out: % control
T11 construct: purchased DiscoveRx KINOMEscan

GRK4 = target: T12, GRK4 (Homo sapiens, UniProt P32298); assay: KinomeScan; format: binding; settings: read-out: % control
T12 construct: purchased DiscoveRx KINOMEscan
T12 sequence (P32298 whole entry): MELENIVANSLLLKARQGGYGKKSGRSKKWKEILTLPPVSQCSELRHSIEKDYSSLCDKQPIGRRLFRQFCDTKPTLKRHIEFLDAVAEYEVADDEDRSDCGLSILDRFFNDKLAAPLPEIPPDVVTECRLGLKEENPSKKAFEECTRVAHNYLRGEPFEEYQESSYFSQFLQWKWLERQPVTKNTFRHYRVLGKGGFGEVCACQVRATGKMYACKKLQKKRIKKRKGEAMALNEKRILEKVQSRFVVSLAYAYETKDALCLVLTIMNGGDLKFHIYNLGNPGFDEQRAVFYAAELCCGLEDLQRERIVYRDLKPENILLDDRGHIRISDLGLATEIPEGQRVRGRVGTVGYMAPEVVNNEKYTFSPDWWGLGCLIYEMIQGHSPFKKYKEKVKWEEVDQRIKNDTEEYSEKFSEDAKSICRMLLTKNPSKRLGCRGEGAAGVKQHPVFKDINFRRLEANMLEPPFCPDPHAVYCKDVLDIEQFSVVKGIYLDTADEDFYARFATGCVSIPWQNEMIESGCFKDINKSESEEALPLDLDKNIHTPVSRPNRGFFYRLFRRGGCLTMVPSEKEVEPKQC

HIPK1 = target: T13, HIPK1 (Homo sapiens, UniProt Q86Z02); assay: KinomeScan; format: binding; settings: read-out: % control
T13 construct: purchased DiscoveRx KINOMEscan

INSRR = target: T14, INSRR (Homo sapiens, UniProt P14616); assay: KinomeScan; format: binding; settings: read-out: % control
T14 construct: purchased DiscoveRx KINOMEscan

[1] = target: T15, JAK1(JH1domain-catalytic) (Homo sapiens, UniProt P23458); assay: KinomeScan; format: binding; settings: read-out: % control
T15 construct: JAK1(JH1domain-catalytic); purchased DiscoveRx KINOMEscan
T15 sequence (P23458 875-1154 limits assumed): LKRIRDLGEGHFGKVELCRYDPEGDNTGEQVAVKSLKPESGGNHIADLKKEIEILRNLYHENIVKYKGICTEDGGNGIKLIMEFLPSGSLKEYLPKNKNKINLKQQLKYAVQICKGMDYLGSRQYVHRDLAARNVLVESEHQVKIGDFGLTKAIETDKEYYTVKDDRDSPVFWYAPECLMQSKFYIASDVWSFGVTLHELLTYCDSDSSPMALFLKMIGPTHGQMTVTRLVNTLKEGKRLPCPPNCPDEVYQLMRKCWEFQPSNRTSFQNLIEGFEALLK

[2] = target: T16, JAK2(JH1domain-catalytic) (Homo sapiens, UniProt O60674); assay: KinomeScan; format: binding; settings: read-out: % control
T16 construct: JAK2(JH1domain-catalytic); purchased DiscoveRx KINOMEscan

KIT = target: T17, KIT (Homo sapiens, UniProt P10721); assay: KinomeScan; format: binding; settings: read-out: % control
T17 construct: purchased DiscoveRx KINOMEscan
T17 sequence (P10721 26-976): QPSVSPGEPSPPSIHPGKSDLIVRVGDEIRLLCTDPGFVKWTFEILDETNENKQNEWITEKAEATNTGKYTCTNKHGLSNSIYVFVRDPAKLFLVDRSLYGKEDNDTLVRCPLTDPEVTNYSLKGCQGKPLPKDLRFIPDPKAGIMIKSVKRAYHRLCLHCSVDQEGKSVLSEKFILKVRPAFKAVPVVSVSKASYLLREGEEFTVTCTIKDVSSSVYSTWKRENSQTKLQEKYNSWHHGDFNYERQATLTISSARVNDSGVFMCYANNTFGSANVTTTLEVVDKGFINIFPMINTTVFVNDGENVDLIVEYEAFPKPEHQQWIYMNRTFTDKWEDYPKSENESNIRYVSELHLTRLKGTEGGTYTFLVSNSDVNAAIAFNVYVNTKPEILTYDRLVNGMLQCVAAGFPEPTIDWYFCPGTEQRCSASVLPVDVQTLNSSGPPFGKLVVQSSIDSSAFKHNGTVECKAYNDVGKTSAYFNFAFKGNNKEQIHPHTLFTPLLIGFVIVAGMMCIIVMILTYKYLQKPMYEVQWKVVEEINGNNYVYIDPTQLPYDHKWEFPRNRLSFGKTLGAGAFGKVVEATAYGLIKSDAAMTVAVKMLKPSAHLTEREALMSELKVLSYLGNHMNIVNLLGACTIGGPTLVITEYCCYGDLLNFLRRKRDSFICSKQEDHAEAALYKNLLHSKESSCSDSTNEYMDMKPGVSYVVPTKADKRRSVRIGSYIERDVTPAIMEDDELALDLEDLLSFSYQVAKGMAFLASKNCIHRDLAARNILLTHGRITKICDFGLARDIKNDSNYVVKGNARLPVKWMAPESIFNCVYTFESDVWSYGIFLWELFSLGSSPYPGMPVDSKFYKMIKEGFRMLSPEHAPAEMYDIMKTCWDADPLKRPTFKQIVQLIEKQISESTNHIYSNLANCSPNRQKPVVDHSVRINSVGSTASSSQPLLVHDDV

KIT(D816H) = target: T18, KIT(D816H) (Homo sapiens, UniProt P10721, D816H); assay: KinomeScan; format: binding; settings: read-out: % control
T18 construct: purchased DiscoveRx KINOMEscan
T18 sequence (P10721 26-976 D816H): as the sequence (P10721 26-976) above, with D791H counted along it

LRRK2 = target: T19, LRRK2 (Homo sapiens, UniProt Q5S007); assay: KinomeScan; format: binding; settings: read-out: % control
T19 construct: purchased DiscoveRx KINOMEscan

MAP3K15 = target: T20, MAP3K15 (Homo sapiens, UniProt Q6ZN16); assay: KinomeScan; format: binding; settings: read-out: % control
T20 construct: purchased DiscoveRx KINOMEscan

MERTK = target: T21, MERTK (Homo sapiens, UniProt Q12866); assay: KinomeScan; format: binding; settings: read-out: % control
T21 construct: purchased DiscoveRx KINOMEscan

MET(M1250T) = target: T22, MET(M1250T) (Homo sapiens, UniProt P08581, M1250T); assay: KinomeScan; format: binding; settings: read-out: % control
T22 construct: purchased DiscoveRx KINOMEscan

NIM1 = target: T23, NIM1 (Homo sapiens, UniProt Q8IY84); assay: KinomeScan; format: binding; settings: read-out: % control
T23 construct: purchased DiscoveRx KINOMEscan

p38-delta = target: T24, p38-delta (Homo sapiens, UniProt O15264); assay: KinomeScan; format: binding; settings: read-out: % control
T24 construct: purchased DiscoveRx KINOMEscan
T24 sequence (O15264 whole entry): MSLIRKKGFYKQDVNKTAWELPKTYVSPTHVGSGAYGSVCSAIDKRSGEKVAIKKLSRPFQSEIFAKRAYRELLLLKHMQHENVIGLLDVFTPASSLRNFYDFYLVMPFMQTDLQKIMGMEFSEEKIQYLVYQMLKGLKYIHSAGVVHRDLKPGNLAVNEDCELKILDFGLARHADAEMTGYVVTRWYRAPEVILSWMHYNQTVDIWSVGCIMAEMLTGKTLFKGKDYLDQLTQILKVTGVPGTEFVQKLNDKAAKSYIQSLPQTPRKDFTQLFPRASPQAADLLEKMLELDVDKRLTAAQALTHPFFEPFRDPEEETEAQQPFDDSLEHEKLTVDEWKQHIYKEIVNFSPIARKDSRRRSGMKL

PCTK3 = target: T25, PCTK3 (Homo sapiens, UniProt Q07002); assay: KinomeScan; format: binding; settings: read-out: % control
T25 construct: purchased DiscoveRx KINOMEscan

PHKG1 = target: T26, PHKG1 (Homo sapiens, UniProt Q16816); assay: KinomeScan; format: binding; settings: read-out: % control
T26 construct: purchased DiscoveRx KINOMEscan

PIK3CA(I800L) = target: T27, PIK3CA(I800L) (Homo sapiens, UniProt P42336, I800L); assay: KinomeScan; format: binding; settings: read-out: % control
T27 construct: purchased DiscoveRx KINOMEscan

PKAC-alpha = target: T28, PKAC-alpha (Homo sapiens, UniProt P17612); assay: KinomeScan; format: binding; settings: read-out: % control
T28 construct: purchased DiscoveRx KINOMEscan

PKN2 = target: T29, PKN2 (Homo sapiens, UniProt Q16513); assay: KinomeScan; format: binding; settings: read-out: % control
T29 construct: purchased DiscoveRx KINOMEscan

PLK3 = target: T30, PLK3 (Homo sapiens, UniProt Q9H4B4); assay: KinomeScan; format: binding; settings: read-out: % control
T30 construct: purchased DiscoveRx KINOMEscan

SRPK2 = target: T31, SRPK2 (Homo sapiens, UniProt P78362); assay: KinomeScan; format: binding; settings: read-out: % control
T31 construct: purchased DiscoveRx KINOMEscan
T31 sequence (P78362 whole entry): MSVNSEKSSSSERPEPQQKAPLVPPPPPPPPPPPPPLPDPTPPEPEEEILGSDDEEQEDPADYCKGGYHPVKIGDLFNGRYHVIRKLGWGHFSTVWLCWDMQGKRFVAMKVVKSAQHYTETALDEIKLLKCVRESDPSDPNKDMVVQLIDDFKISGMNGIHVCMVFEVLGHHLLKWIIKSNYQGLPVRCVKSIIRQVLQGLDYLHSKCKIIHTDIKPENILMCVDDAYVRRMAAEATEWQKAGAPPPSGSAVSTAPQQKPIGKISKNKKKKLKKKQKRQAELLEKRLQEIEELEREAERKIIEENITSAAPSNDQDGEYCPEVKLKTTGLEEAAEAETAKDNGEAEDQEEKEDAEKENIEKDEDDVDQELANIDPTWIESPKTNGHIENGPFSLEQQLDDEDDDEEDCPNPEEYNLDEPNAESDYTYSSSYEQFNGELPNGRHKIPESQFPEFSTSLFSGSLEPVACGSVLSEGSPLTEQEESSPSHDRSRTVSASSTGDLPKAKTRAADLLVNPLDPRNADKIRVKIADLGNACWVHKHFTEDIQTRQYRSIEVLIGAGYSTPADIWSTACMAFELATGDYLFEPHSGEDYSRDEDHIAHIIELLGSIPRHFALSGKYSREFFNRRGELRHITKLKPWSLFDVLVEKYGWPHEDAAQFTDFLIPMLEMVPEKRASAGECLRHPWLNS

TGFBR2 = target: T32, TGFBR2 (Homo sapiens, UniProt P37173); assay: KinomeScan; format: binding; settings: read-out: % control
T32 construct: purchased DiscoveRx KINOMEscan

TLK2 = target: T33, TLK2 (Homo sapiens, UniProt Q86UE8); assay: KinomeScan; format: binding; settings: read-out: % control
T33 construct: purchased DiscoveRx KINOMEscan

BaF3-INSR = assay: Anti-proliferative effects, INSR transformed isogenic BaF3 cells; format: cell-based; settings: Mus musculus, read-out: IC50 (anti-proliferative; GI50)
[3] = tested on: autophosphorylation of EGFR Y1068 in H1975 cell line; assay: Signaling pathway examination (immunoblotting); format: cell-based, human; settings: 10 nM, 4 hours
Text: (§1) We next examined the effects of CHMFL-EGFR-26 on EGFR mediated signaling pathways in NSCLC cell lines with different EGFR mutants. […] As expected, in the EGFR wt expressing NCSCL cell lines A549 and H1355, only autophosphorylation of EGFR was affected and none of the downstream mediators was inhibited.
(§2) Cells were then collected and lysed. Phospho-EGF Receptor, Phospho-EGF Receptor (Tyr1068), Stat3, Phospho-Stat3 (Tyr705), AKT, Phospho-AKT (Ser473), Phospho-AKT (Thr308), p44/42 MAPK (Erk1/2), Phospho-p44/42 MAPK (Erk1/2) (Thr202/ Tyr204), p70 S6 Kinase, Phospho-p70 S6 Kinase (Thr389), eIF4E, Phospho-eIF4E (Ser209), 4E-BP1, Phospho-4E-BP1 (Thr37/46) antibody (Cell Signaling Technology) were used for immunoblotting.

[4] = tested on: p70S6K and eIF4E phosphorylations in H3255 cells; assay: Signaling pathway examination (immunoblotting); format: cell-based, human; settings: 30 nM, 4 hours
Text: as §1, §2

`C=CC(=O)N1CCC[C@@H](n2nc(-c3ccc(OCc4cccc(C)n4)c(Cl)c3)c3c(N)ncnc32)C1` [CHMFL-EGFR-26] showed a remaining binding at 1 µM (ABL1-phosphorylated) of 81%, a remaining binding at 1 µM (CAMK1) of 100% and a remaining binding at 1 µM (CAMK1G) of 97%. For the same compound, the remaining binding at 1 µM (CDC2L5) was 100%, the remaining binding at 1 µM (CDK7) was 100% and the remaining binding at 1 µM (CHEK1) was 100%. The remaining binding at 1 µM (DRAK1) was 100%, the remaining binding at 1 µM (EGFR) was 0.8% and the remaining binding at 1 µM (EPHA7) was 100%. For the same compound, the remaining binding at 1 µM (EPHB1) was 96%, the “% control” value (FLT3(ITD,F691L)) was 100% and the remaining binding at 1 µM (FLT3(R834Q)) was 100%. For the same compound, the remaining binding at 1 µM (GRK4) was 88%, the remaining binding at 1 µM (HIPK1) was 98% and the remaining binding at 1 µM (INSRR) was 100%. It also gave a remaining binding at 1 µM [1] of 91%, a remaining binding at 1 µM [2] of 95% and a remaining binding at 1 µM (KIT) of 100%. The remaining binding at 1 µM (KIT(D816H)) was 100%, the remaining binding at 1 µM (LRRK2) was 100% and the remaining binding at 1 µM (MAP3K15) was 100%. The remaining binding at 1 µM (MERTK) was 79%, the remaining binding at 1 µM (MET(M1250T)) was 90% and the remaining binding at 1 µM (NIM1) was 96%. It also gave a remaining binding at 1 µM (p38-delta) of 83%, a remaining binding at 1 µM (PCTK3) of 94% and a remaining binding at 1 µM (PHKG1) of 100%. For the same compound, the remaining binding at 1 µM (PIK3CA(I800L)) was 100%, the remaining binding at 1 µM (PKAC-alpha) was 100% and the remaining binding at 1 µM (PKN2) was 53%. For the same compound, the remaining binding at 1 µM (PLK3) was 85%, the remaining binding at 1 µM (SRPK2) was 100% and the remaining binding at 1 µM (TGFBR2) was 100%. For the same compound, the remaining binding at 1 µM (TLK2) was 80%, the IC50 (BaF3-INSR) was 2800 nM and the “autophosphorylation of EGFR Y1068” value [3] was “almost completely suppress”. For the same compound, the “mTOR-p70S6K and eIF4E phosphorylations” value [4] was “completely blocked”.
